The data set in a line: water solubility of α-diazocarbonyl substrates under the conditions of the oligonucleotide modification reaction. The data set is classed as physicochemical. The conditions noted are these: aqueous reaction mixture, 100 mM MES buffer, pH 6.0, 50 mM α-diazocarbonyl compound. The text has this:
A number of a-diazocarbonyl substrates were screened as potential candidates for the target reaction of oligonucleotide modification (Table 4). […] Increasing the bulkiness of the ester moiety appeared to have a negative effect on the yields of modified oligonucleotide as for entry 2 the efficacy of modification was reduced twice in comparison to the methyl ester counterpart (entry 1) and with the compound from entry 7 only trace amounts of modified oligonucleotide were isolated.
General procedure for Rh2(OAc)4-catalyzed oligonucleotide modification using a-diazocarbonyl compounds. Typically […] reaction mixtures containing 5 mM oligonucleotide, […] Rh2(OAc)4 and 50 mM a-diazocarbonyl compound in 100 mM MES buffer, pH 6.0 were kept at 20 °C for 24-72 h. Analysis of the reaction products was carried out by micropreparative HPLC-separation of 5-ml aliquots of the reaction mixtures using method A. The collected peak fractions were further assessed by ESI-MS or MALDI TOF.

SMILES strings stand for the structures.

As for `CCOC(=O)C(=[N+]=[N-])c1ccc(CN(C)C)cc1` [entry 2], the “water solubility under the conditions of the analysis” value (from here on “water solubility under the conditions”) is listed as “sufficiently water-soluble”.
With `COC(=O)C(=[N+]=[N-])c1ccc(CN(C)C)cc1` [Dz-1, Methyl 2-diazo-2-(4-((dimethylamino)methyl)phenyl)acetate], the “water solubility under the conditions” value was “sufficiently water-soluble”.
For `C#CCN1CCN(CCOCCOCCOCCN2CCN(Cc3ccc(C(=[N+]=[N-])C(=O)OC)cc3)CC2)CC1` [Dz-2, Methyl2-diazo-2-(4-((4-(2-(2-(2-(2-(4-(prop-2-yn-1-yl)piperazin-1-yl)ethoxy)ethoxy)ethoxy)ethyl)piperazin-1-yl)methyl)phenyl)acetate], the “water solubility under the conditions” value is on record as “sufficiently water-soluble”.

The values are drawn from patent EP2689847A1, “Methods for catalytic alkylation of nucleic acids” (Universität Basel, priority 2012, dated 2014).
